Experimental data taken from patent US20100197724A1, “6.5 -PYRROLOPIPERIDINE TACHYKININ RECEPTOR ANTAGONISTS” (priority 2007, published 2010).

Molecular target: T1, human neurokinin-1 receptor (NK1R) (Homo sapiens, UniProt P25103)
T1 construct: expressed in transfected cells
Assay: 125I-substance P binding assay of human NK1R expressed in COS or CHO cells
Conditions: competition with 125I-substance P
Experimental: Receptor Expression in COS: To express the cloned human neurokinin-1 receptor (NK1R) transiently in COS, the cDNA for the human NK1R was cloned into the expression vector pCDM9 which was derived from pCDM8 (INVITROGEN) by inserting the ampicillin resistance gene (nucleotide 1973 to 2964 from BLUESCRIPT SK+) into the Sac II site. Transfection of 20 ug of the plasmid DNA into 10 million COS cells was achieved by electroporation in 800 ul of transfection buffer (135 mM NaCl, 1.2 mM CaCl2, 1.2 mM MgCl2, 2.4 mM K2HPO4, 0.6 mM KH2PO4, 10 mM glucose, 10 mM HEPES pH 7.4) at 260 V and 950 uF using the IBI GENEZAPPER (IBI, New Haven, Conn.). The cells were incubated in 10% fetal calf serum, 2 mM glutamine, 100 U/ml penicillin-streptomycin, and 90% DMEM media (GIBCO, Grand Island, N.Y.) in 5% CO2 at 37° C. for three days before the binding assay.
Stable Expression in CHO: To establish a stable cell line expressing the cloned human NK1R, the cDNA was subcloned into the vector pRcCMV (INVITROGEN). Transfection of 20 ug of the plasmid DNA into CHO cells was achieved by electroporation in 800 ul of transfection buffer supplemented with 0.625 mg/ml Herring sperm DNA at 300 V and 950 uF using the IBI GENEZAPPER (IBI). The transfected cells were incubated in CHO media [10% fetal calf serum, 100 U/ml penicillin-streptomycin, 2 mM glutamine, 1/500 hypoxanthine-thymidine (ATCC), 90% IMDM media (JRH BIOSCIENCES, Lenexa, Kans.), 0.7 mg/ml G418 (GIBCO)] in 5% CO2 at 37° C. until colonies were visible. Each colony was separated and propagated. The cell clone with the highest number of human NK1R was selected for subsequent applications such as drug screening.
Assay Protocol using COS or CHO: The binding assay of human NK1R expressed in either COS or CHO cells is based on the use of ^125I-substance P (^125I-SP, from DU PONT, Boston, Mass.) as a radioactively labeled ligand which competes with unlabeled substance P or any other ligand for binding to the human NK1R. Monolayer cell cultures of COS or CHO were dissociated by the non-enzymatic solution (SPECIALTY MEDIA, Lavallette, N.J.) and resuspended in appropriate volume of the binding buffer (50 mM Tris pH 7.5, 5 mM MnCl2, 150 mM NaCl, 0.04 mg/ml bacitracin, 0.004 mg/ml leupeptin, 0.2 mg/ml BSA, 0.01 mM phosphoramidon) such that 200 ul of the cell suspension would give rise to about 10,000 cpm of specific ^125I-SP binding (approximately 50,000 to 200,000 cells). In the binding assay, 200 ul of cells were added to a tube containing 20 ul of 1.5 to 2.5 nM of ^125I-SP and 20 ul of unlabeled substance P or any other test compound. The tubes were incubated at 4° C. or at room temperature for 1 hour with gentle shaking. The bound radioactivity was separated from unbound radioactivity by GF/C filter (BRANDEL, Gaithersburg, Md.) which was pre-wetted with 0.1% polyethylenimine. The filter was washed with 3 ml of wash buffer (50 mM Tris pH 7.5, 5 mM MnCl2, 150 mM NaCl) three times and its radioactivity was determined by gamma counter. The activation of phospholipase C by NK1R may also be measured in CHO cells expressing the human NK1R by determining the accumulation of inositol monophosphate which is a degradation product of IP3. CHO cells are seeded in 12-well plate at 250,000 cells per well. After incubating in CHO media for 4 days, cells are loaded with 0.025 uCi/ml of ^3H-myoinositol by overnight incubation. The extracellular radioactivity is removed by washing with phosphate buffered saline. LiCl is added to the well at final concentration of 0.1 mM with or without the test compound, and incubation is continued at 37° C. for […]. Substance P is added to the well at final concentration of 0.3 nM to activate the human NK1R. After 30 min of incubation at 37° C., the media is removed and 0.1 N HCl is added. Each well is sonicated at 4° C. and extracted with CHCl3/methanol (1:1). The aqueous phase is applied to a 1 ml Dowex AG 1X8 ion exchange column. […]

T1 sequence (P25103 whole entry): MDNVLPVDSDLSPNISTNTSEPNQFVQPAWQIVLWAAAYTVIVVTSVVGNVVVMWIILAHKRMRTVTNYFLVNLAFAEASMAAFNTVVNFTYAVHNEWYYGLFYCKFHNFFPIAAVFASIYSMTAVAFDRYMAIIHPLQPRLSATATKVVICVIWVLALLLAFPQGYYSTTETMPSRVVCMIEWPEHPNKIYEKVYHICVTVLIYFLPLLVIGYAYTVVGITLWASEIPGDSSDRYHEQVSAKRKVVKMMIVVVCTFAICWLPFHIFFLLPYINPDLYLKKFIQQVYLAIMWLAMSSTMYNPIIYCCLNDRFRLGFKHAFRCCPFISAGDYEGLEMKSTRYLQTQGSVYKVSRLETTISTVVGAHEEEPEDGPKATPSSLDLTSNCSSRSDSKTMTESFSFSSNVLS

SMILES	IC50 [nM]
Cc1ccccc1[C@H]1[C@@H]2CN(C(=O)C3CCC(=O)N(C)C3)C[C@H]2CCN1C(=O)N(C)[C@H](C)c1cc(C(F)(F)F)cc(C(F)(F)F)c1 (stereo partly drawn) [Example 19, (3aS,4R,7aS)-N-{(1R)-1-[3,5-bis(trifluoromethyl)phenyl]ethyl}-N-methyl-2-[(1-methyl-6-oxopiperidin-3-yl)carbonyl]-4-(2-methylphenyl)octahydro-5H-pyrrolo[3,4-c]pyridine-5-carboxamide]	0.09
Cc1ccccc1[C@H]1[C@@H]2CN(C3CCOCC3)C[C@H]2CCN1C(=O)N(C)[C@H](C)c1cc(C(F)(F)F)cc(C(F)(F)F)c1 [Example 21, (3aS,4R,7aS)-N-{(1R)-1-[3,5-bis(trifluoromethyl)phenyl]ethyl}-N-methyl-4-(2-methylphenyl)-2-(tetrahydro-2H-pyran-4-yl)octahydro-5H-pyrrolo[3,4-c]pyridine-5-carboxamide]	0.085
Cc1cc(F)ccc1[C@H]1[C@@H]2CN(Cc3ccccc3)C[C@H]2CCN1C(=O)N(C)[C@H](C)c1cc(C(F)(F)F)cc(C(F)(F)F)c1 [Example 25, (3aS,4R,7aS)-2-benzyl-N-{(1R)-1-[3,5-bis(trifluoromethyl)phenyl]ethyl}-4-(4-fluoro-2-methylphenyl)-N-methyloctahydro-5H-pyrrolo[3,4-c]pyridine-5-carboxamide]	0.052
Cc1cc(F)ccc1[C@H]1[C@@H]2CN(C(=O)[C@@H](C)O)C[C@H]2CCN1C(=O)N(C)[C@H](C)c1cc(C(F)(F)F)cc(C(F)(F)F)c1 [Example 31, (3aS,4R,7aS)-N-{(1R)-1-[3,5-bis(trifluoromethyl)phenyl]ethyl}-4-(4-fluoro-2-methylphenyl)-2-[(2R)-2-hydroxypropanoyl]-N-methyloctahydro-5H-pyrrolo[3,4-c]pyridine-5-carboxamide]	0.057
Cc1cc(F)ccc1[C@H]1[C@@H]2CN(C3CCOCC3)C[C@H]2CCN1C(=O)N(C)[C@H](C)c1cc(C(F)(F)F)cc(C(F)(F)F)c1 [Example 35, (3aS,4R,7aS)-N-{(1R)-1-[3,5-bis(trifluoromethyl)phenyl]ethyl}-4-(4-fluoro-2-methylphenyl)-N-methyl-2-(tetrahydro-2H-pyran-4-yl)octahydro-5H-pyrrolo[3,4-c]pyridine-5-carboxamide]	0.111
CC(=O)N1CCC(N2C[C@H]3CCN(C(=O)N(C)[C@H](C)c4cc(C(F)(F)F)cc(C(F)(F)F)c4)[C@@H](c4ccc(F)cc4C)[C@@H]3C2)CC1 [Example 36, (3aS,4R,7aS)-2-(1-acetylpiperidin-4-yl)-N-{(1R)-1-[3,5-bis(trifluoromethyl)phenyl]ethyl}-4-(4-fluoro-2-methylphenyl)-N-methyloctahydro-5H-pyrrolo[3,4-c]pyridine-5-carboxamide]	0.108

Now from value to compound:

IC50 [nM]	SMILES
0.185	Cc1ccccc1[C@H]1[C@@H]2CN(C(=O)C3CCN(C(N)=O)CC3)C[C@H]2CCN1C(=O)N(C)[C@H](C)c1cc(C(F)(F)F)cc(C(F)(F)F)c1 [Example 20, (3aS,4R,7aS)-2-{[1-(aminocarbonyl)piperidin-4-yl]carbonyl}-N-{(1R)-1-[3,5-bis(trifluoromethyl)phenyl]ethyl}-N-methyl-4-(2-methylphenyl)octahydro-5H-pyrrolo[3,4-c]pyridine-5-carboxamide]
0.089	CC(=O)N1CCC(N2C[C@H]3CCN(C(=O)N(C)[C@H](C)c4cc(C(F)(F)F)cc(C(F)(F)F)c4)[C@@H](c4ccccc4C)[C@@H]3C2)CC1 [Example 22, (3aS,4R,7aS)-2-(1-acetylpiperidin-4-yl)-N-{(1R)-1-[3,5-bis(trifluoromethyl)phenyl]ethyl}-N-methyl-4-(2-methylphenyl)octahydro-5H-pyrrolo[3,4-c]pyridine-5-carboxamide]
0.094	Cc1ccccc1[C@H]1C2CN(CC(C)(C)CO)C[C@H]2CCN1C(=O)N(C)[C@H](C)c1cc(C(F)(F)F)cc(C(F)(F)F)c1 (stereo partly drawn) [Example 23]
0.031	Cc1cc(F)ccc1[C@H]1C2CNC[C@H]2CCN1C(=O)N(C)[C@H](C)c1cc(C(F)(F)F)cc(C(F)(F)F)c1 (stereo partly drawn) [Example 26, (3aS,4R,7aS)-N-{(1R)-1-[3,5-bistrifluoromethyl)phenyl]ethyl}-4-(4-fluoro-2-methylphenyl-N-methyloctahydro-5H-pyrrolo[3,4-c]pyridine-5-carboxamide]
0.077	Cc1cc(F)ccc1[C@H]1[C@@H]2CN(C3=NC(=O)CO3)C[C@H]2CCN1C(=O)N(C)[C@H](C)c1cc(C(F)(F)F)cc(C(F)(F)F)c1 [Example 28, (3aS,4R,7aS)-N-{(1R)-1-[3,5-bis(trifluoromethyl)phenyl]ethyl}-4-(4-fluoro-2-methylphenyl)-N-methyl-2-(4-oxo-4,5-dihydro-1,3-oxazol-2-yl)octahydro-5H-pyrrolo[3,4-c]pyridine-5-carboxamide]
0.115	Cc1cc(F)ccc1[C@H]1C2CN(C3=CC(=O)OC3)C[C@H]2CCN1C(=O)N(C)[C@H](C)c1cc(C(F)(F)F)cc(C(F)(F)F)c1 (stereo partly drawn) [Example 29]
0.072	Cc1cc(F)ccc1[C@H]1[C@@H]2CN(C(=O)[C@H](C)O)C[C@H]2CCN1C(=O)N(C)[C@H](C)c1cc(C(F)(F)F)cc(C(F)(F)F)c1 [Example 30, (3aS,4R,7aS)-N-{(1R)-1-[3,5-bis(trifluoromethyl)phenyl]ethyl}-4-(4-fluoro-2-methylphenyl)-2-[(2S)-2-hydroxypropanoyl]-N-methyloctahydro-5H-pyrrolo[3,4-c]pyridine-5-carboxamide]
0.066	Cc1cc(F)ccc1[C@H]1[C@@H]2CN(C(=O)C(C)(C)C)C[C@H]2CCN1C(=O)N(C)[C@H](C)c1cc(C(F)(F)F)cc(C(F)(F)F)c1 [Example 33, (3aS,4R,7aS)-N-{(1R)-1-[3,5-bis(trifluoromethyl)phenyl]ethyl}-2-(2,2-dimethylpropanoyl)-4-(4-fluoro-2-methylphenyl)-N-methyloctahydro-5H-pyrrolo[3,4-c]pyridine-5-carboxamide]
0.048	Cc1cc(F)ccc1[C@H]1C2CN(C(=O)C3CCOCC3)C[C@H]2CCN1C(=O)N(C)[C@H](C)c1cc(C(F)(F)F)cc(C(F)(F)F)c1 (stereo partly drawn) [Example 34]
